Measurements from PMC10227015, “From a drug repositioning to a structure-based drug design approach to tackle acute lymphoblastic leukemia” (Nature Communications, 2023).
Like-named read-outs stand apart in the source and are kept apart here.

What was measured:
CCRF-CEM cell line = test: dCK cellular assay: CCRF-CEM proliferation in the presence of dT and dC; type: cell-based, human
Experimental: The dCK cellular assay was set up to assess the ability to inhibit dCK activity in a cellular model. The model was developed with a T-cell acute lymphoblastic leukemia cell line (CCRF-CEM), because of its high dependence on the SP, thus on dCK activity. Cellular assays were performed to assess the inhibition of cell proliferation under two conditions: (i) in the presence of the compound alone to determine the nonspecific effect on cells, independent of dCK (nonspecific toxicity) and (ii) in the presence of an inhibitor of the DNP to determine the ability of compounds to inhibit dCK and decrease tumor proliferation (activity on dCK). The inhibitor of the DNP chosen for the experiments was thymidine (dT), a physiological inhibitor of ribonucleotide reductase which arrests cell proliferation in phase S. The dTTP produced via thymidine kinase from dT acts as a RNR inhibitor by an allosteric regulation of the R1 subunit. The addition of the nucleoside deoxycytidine (dC) in the medium allows the rescue of cell proliferation by passing only through the salvage pathway, mediated by dCK. dC needs to be added exogenously to mimic physiological concentrations because it is not present in the cell culture medium, on the contrary to mouse model, in which it is naturally present in the serum. Therefore, cell proliferation under these conditions (+dT +dC) is dCK dependent and it is possible to determine the IC50 of dCK inhibitors on the inhibition of cell proliferation. Results are expressed as % cell proliferation relative to the control with DMSO.
The amount of reduced dye formed by metabolically active cells was quantified by its fluorescence measured at 560 nm (excitation) and 590 nm (emission) in a microplate reader (CLARIOstar, BMG Labtech). A blank well without cells was used as a background control. Each experiment was performed at least three times (with technical triplicates) and data are presented as the mean ± SD.

dCK-C3S-S74E = test: Thermal shift assay (TSA); conditions: for ΔTm (º) (TSA): Figure 2a, mean; for THERMAL SHIFT ASSAY +Tm (°): mean ± SD
dCK-C3S-S74E, sequence (P27707 whole entry S74E, form open): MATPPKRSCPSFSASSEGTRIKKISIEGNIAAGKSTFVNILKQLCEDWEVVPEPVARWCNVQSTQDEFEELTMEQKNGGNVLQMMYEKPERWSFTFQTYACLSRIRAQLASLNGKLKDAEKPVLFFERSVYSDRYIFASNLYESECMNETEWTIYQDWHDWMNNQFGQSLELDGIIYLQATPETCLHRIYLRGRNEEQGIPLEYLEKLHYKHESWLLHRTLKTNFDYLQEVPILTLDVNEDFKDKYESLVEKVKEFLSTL
Description: BL21 pRIL Escherichia coli cells were transformed with dCK-plasmids (dCK-C4S-S74E (for crystallization assays) and dCK-C3S-S74E (for TSA, enzymatic and ITC assays)). […] Protein dCK-C3S-S74E used for other assays contained only three mutated cysteines. The S74E mutation mimics the phosphorylated state of this serine, which favors the open conformation of the enzyme, making it competent for nucleoside binding[45] to evaluate the binding affinity with compounds.
For binding assays (TSA, ITC and crystallography) cells were re-suspended in 50 mM TRIS, pH 8, 500 mM NaCl, 30 mM imidazole and 10% glycerol buffer and one EDTA free anti-protease tablet was added (Roche). After sonication and centrifugation (30,000 × g), the supernatant was loaded on a 5 ml HisTrap FF column (GE healthcare) pre-equilibrated with resuspension buffer. Protein was then eluted by resuspension buffer containing 500 mM imidazole. Protein eluted fractions were mixed and concentrated. Protein was further purified by size exclusion chromatography (superdex 200 16/600, GE healthcare) in 20 mM HEPES, pH 7.5, and 200 mM NaCl before concentration to 30 mg/ml and storage at −80 °C.
Thermal shift assay (TSA) experiments were performed in 384-well PCR white plates in the assay buffer containing 20 mM HEPES, pH 7.5 and 200 mM NaCl. […] Plates were centrifuged at 200 × g for 2 min at 4 °C. […] Raw fluorescence data were treated, and the melting temperatures (Tm) were calculated using CFX Manager 3.1 software (Bio-Rad). ΔTm represents the difference in Tm between the protein in the presence of compound and the protein alone (both at 2% DMSO). Each experiment was performed at least twice (with technical triplicates) and data are presented as the mean ± SD.

[1] = Homo sapiens, read-out: dCK CELLULAR ASSAY IC50 (nM), CCRF-CEM, 200 µM dT and 1 µM dC, read-out: dCK […] ASSAY IC50
[2] = Homo sapiens, Figure 2a, CCRF-CEM cell line, mean, read-out: IC50 (nM) (Cell Prolif)
[3] = Figure 2a, CCRF-CEM cell line, mean, read-out: IC50 (nM) (Cell Prolif)

IC50 (CCRF-CEM cell line; [1]) [nM]	IC50 (CCRF-CEM cell line; [2]) [nM]	ΔTm (º) (TSA) (dCK-C3S-S74E)	THERMAL SHIFT ASSAY +Tm (°) (dCK-C3S-S74E)	IC50 (CCRF-CEM cell line; [3]) [nM]	Structure (SMILES)
46 ± 18	45.7	20.22 º	20.2 ± 0.9		CCCN(c1nc(-c2nc(N)cc(N)n2)cs1)c1cc(-c2ccc(S(=O)(=O)N3CCN(C)CC3)cc2F)ccc1C [OR0643]
	416	16.54 º	16.5 ± 0.1		CCCN(c1nc(-c2nc(N)cc(N)n2)cs1)c1cc(-c2ccc(C(=O)OC)nc2)ccc1C [OR0622]
	120	18.61 º	18.6 ± 1.5		CCCN(c1nc(-c2nc(N)cc(N)n2)cs1)c1cc(-c2ccc(S(=O)(=O)N3CCN(C)CC3)c(OC(F)(F)F)c2)ccc1C [OR0650]
	609	19.7 º	19.7 ± 1.0		Cc1ccc(-c2ccc(CCN3CCN(C)CC3)cc2)cc1N(CC1CC1)c1nc(-c2nc(N)cc(N)n2)cs1 [OR0604]
	16400	14.7 º	14.7 ± 0.2		Cc1ccc(-c2ccc(CCN3CCN(C)CC3)cc2)cc1N(CCN)c1nc(-c2nc(N)cc(N)n2)cs1 [OR0610]
	134	22.28 º	22.3 ± 1.1		CCCN(c1nc(-c2nc(N)cc(N)n2)cs1)c1cc(-c2ccc(S(=O)(=O)N3CCC(N)CC3)cc2)ccc1C [OR0648]
		13.5 º	13.5 ± 0.7	3180	Cc1ccc(-n2cc(CNS(C)(=O)=O)nn2)cc1N(CC(C)C)c1nc(-c2nc(N)cc(N)n2)cs1 [OR0609]
	169	16.63 º	16.6 ± 0.9		CCCN(c1nc(-c2nc(N)cc(N)n2)cs1)c1cc(-c2ccc(C(=O)N3CCOCC3)nc2)ccc1C [OR0621]
1520 ± 178	1530	20.83 º	20.8 ± 1.2		CCCN(c1nc(-c2nc(N)cc(N)n2)cs1)c1cc(-c2ccc(S(=O)(=O)NCCN)cc2)ccc1C [OR0651]
	353	16.82 º	16.8 ± 0.7		CCCN(c1nc(-c2nc(N)cc(N)n2)cs1)c1cc(-c2ccc(NS(=O)(=O)N3CCN(C)CC3)nc2)ccc1C [OR0625]
67 ± 22	67.4	19.72 º	19.7 ± 0.9		CCCN(c1nc(-c2nc(N)cc(N)n2)cs1)c1cc(-c2ccc(S(=O)(=O)N3CCN(C)CC3)cc2OC)ccc1C [OR0645]
	171	22.39 º	22.4 ± 1.1		CCCN(c1nc(-c2nc(N)cc(N)n2)cs1)c1cc(-c2ccc(S(=O)(=O)C3CCNCC3)cc2)ccc1C [OR0646]
	5750	16.85 º	16.9 ± 0.5		CCCN(c1nc(-c2nc(N)cc(N)n2)cs1)c1cc(-c2ccc3[nH]ccc3c2)ccc1C [OR0626]
		19.17 º		7.3	CCCN(c1nc(-c2nc(N)cc(N)n2)cs1)c1cc(-c2cnc(S(=O)(=O)N3CCN(C)CC3)cc2C)ccc1C [OR0652]
	2220	18.67 º	18.7 ± 0.6		Cc1ccc(-c2ccc(CCN3CCN(C)CC3)cc2)cc1N(CCC(C)C)c1nc(-c2nc(N)cc(N)n2)cs1 [OR0605]
	2740	16.75 º	16.8 ± 0.1		Cc1ccc(-c2ccc(S(=O)(=O)N3CCN(C)CC3)cc2)cc1N(C)c1nc(-c2nc(N)cc(N)n2)cs1 [OR0631]
	407	15.71 º	15.7 ± 0.5		CCCN(c1nc(-c2nc(N)cc(N)n2)cs1)c1cc(-c2cccnc2)ccc1C [OR0620]

IC50 (CCRF-CEM cell line; [1]) [nM]	IC50 (CCRF-CEM cell line; [2]) [nM]	ΔTm (º) (TSA) (dCK-C3S-S74E)	THERMAL SHIFT ASSAY +Tm (°) (dCK-C3S-S74E)	IC50 (CCRF-CEM cell line; [3]) [nM]	Structure (SMILES)
	552	19.85 º	19.9 ± 0.5		CCCCN(c1nc(-c2nc(N)cc(N)n2)cs1)c1cc(-c2ccc(CCN3CCN(C)CC3)cc2)ccc1C [OR0606]
1760 ± 160			19.2 ± 0.3		CN1CCN(CCc2ccc(-c3ccc4c(c3)N(c3nc(-c5nccc(N)n5)cs3)CCCC4)cc2)CC1 [OR0402]
	301	17.68 º	17.7 ± 0.9		Cc1ccc(-c2ccc(S(=O)(=O)N3CCN(C)CC3)cc2)cc1N(c1nc(-c2nc(N)cc(N)n2)cs1)C(C)C [OR0636]
	12.1	20.5 º	20.5 ± 1.2		CCCN(c1nc(-c2nc(N)cc(N)n2)cs1)c1cc(-c2c(F)cc(S(=O)(=O)N3CCN(C)CC3)cc2OC)ccc1C [OR0644]
	614	16.88 º	16.9 ± 0.5		CCCN(c1nc(-c2nc(N)cc(N)n2)cs1)c1cc(-c2ccc(CN(C)C)cc2)ccc1C [OR0619]
	413	17.75 º	17.8 ± 0.1		CCN(c1nc(-c2nc(N)cc(N)n2)cs1)c1cc(-c2ccc(S(=O)(=O)N3CCN(C)CC3)cc2)ccc1C [OR0632]
	119	20.72 º	20.7 ± 0.9		CCCN(c1nc(-c2nc(N)cc(N)n2)cs1)c1cc(-c2ccc(S(=O)(=O)N3CCNCC3)cc2)ccc1C [OR0639]
	3670	18.22 º	18.2 ± 0.9		CCCN(c1nc(-c2nc(N)cc(N)n2)co1)c1cc(-c2ccc(S(=O)(=O)N3CCN(C)CC3)cc2)ccc1C [OR0640]
10.5 ± 5	10	21.11 º	21.1 ± 1.1		CCCN(c1nc(-c2nc(N)cc(N)n2)cs1)c1cc(-c2ccc(S(=O)(=O)N3CCN(C)CC3)cc2Cl)ccc1C [OR0641]
84 ± 49	88.3	20.49 º	20.5 ± 0.9		Cc1ccc(-c2ccc(S(=O)(=O)N3CCN(C)CC3)cc2)cc1N(CC(C)C)c1nc(-c2nc(N)cc(N)n2)cs1 [OR0637]
	35	20.22 º	20.2 ± 0.9		CCCN(c1nc(-c2nc(N)cc(N)n2)cs1)c1cc(-c2ccc(S(=O)(=O)N3CCN(CC)CC3)cc2)ccc1C [OR0638]
	139	20.6 º	20.6 ± 0.1		CCCN(c1nc(-c2nc(N)cc(N)n2)cs1)c1cc(-c2ccc(OCCN3CCN(C)CC3)nc2)ccc1C [OR0629]
2790 ± 1740			13.2 ± 0.2		Cc1ccc(Oc2ccc(CN3CCN(C)CC3)cc2)cc1Nc1nc(-c2nccc(N)n2)cs1 [OR0143]
	140	17.25 º	17.3 ± 0.1		CCCN(c1nc(-c2nc(N)cc(N)n2)cs1)c1cc(-c2ccc(S(=O)(=O)N3CCN(C)CC3)cc2)cc(F)c1C [OR0633]
10.9 ± 4.1	11	21.06 º	21.1 ± 1.6		CCCN(c1nc(-c2nc(N)cc(N)n2)cs1)c1cc(-c2c(F)cc(S(=O)(=O)N3CCN(C)CC3)cc2F)ccc1C [OR0647]
37700 ± 4380			10.3 ± 0.0		Cc1ccc(NC(=O)c2cnc(CN3CCN(C)CC3)nc2)cc1Nc1nc(-c2nccc(N)n2)cs1 [OR0125]
